pIC50: −log10 of the molar value.
What was measured:
[1] = system: 20-HETE synthase originated from rat kidney microsome; assay: Inhibitory effect of 20-HETE synthase originated from rat kidney microsome; assay type: biochemical; details: for Inhibition rate (1 μM): 20-HETE production without compound set to 100%
Summary of the method: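 Kidney microsomes from 6-week male spontaneously hypertensive rats were used with tritium-arachidonic acid and NADPH. 20-HETE was quantified by radio-HPLC on a C18 column.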

[2] = 1 μM of subject compound, rat kidney microsome
[3] = concentration at which 20-HETE production was inhibited to 50%, rat kidney microsome
[4] = concentration at which production of 20-HETE was inhibited to 50%

Row | Structure (SMILES) | Inhibition rate (1 μM) [1, 2] | pIC50 [1, 3] | melting point | Inhibition rate (1 μM) ([1]; 1 μM of the subject compound) | pIC50 [1, 4]
1 | O/N=C/Nc1ccc(OCc2cccnc2)cc1 [Comp. 362] | 106 | 8.68 | 156 to 157 °C | – | –
2 | O/N=C/Nc1ccc(OCCCc2cccnc2)cc1 [Comp. 363] | 105 | 9.11 | 154 to 155 °C | – | –
3 | CC1(C)COC(CCOc2ccc(N/C=N/O)cc2)OC1 [Comp. 364] | 104 | 8.70 | 136.5 to 137.5 °C | – | –
4 | O/N=C/Nc1ccc(OCCCOc2ccccc2)cc1 [Comp. 365] | 105 | 8.85 | 143.5 to 145 °C | – | –
5 | O/N=C/Nc1ccc(OCCCc2ccncc2)cc1 [Comp. 366] | 105 | 8.92 | 188 to 189 °C | – | –
6 | O/N=C/Nc1ccc(OCc2ccsc2)cc1 [Comp. 367] | 103 | 8.68 | 165 to 166 °C | – | –
7 | O/N=C/Nc1ccc(OCc2ccoc2)cc1 [Comp. 368] | 96 | 8.60 | 165.5 to 166 °C | – | –
8 | Cc1cccc(COc2ccc(N/C=N/O)cc2)n1 [Comp. 369] | 105 | 8.51 | 146.5 to 149 °C | – | –
9 | CCOCCCOc1ccc(N/C=N/O)cc1 [Comp. 371] | 110.4 | 9.05 | 93 to 94 °C | – | –
10 | CCCCOCCOc1ccc(N/C=N/O)cc1 [Comp. 373] | 115.3 | 9.10 | 97 to 99 °C | – | –
11 | COc1ccccc1COc1ccc(N/C=N/O)cc1 [Comp. 382] | 122.5 | 8.51 | 153 to 153.5 °C | – | –
12 | O/N=C/Nc1ccc(OCc2cc(F)ccc2F)cc1 [Comp. 384] | 117.3 | 8.55 | 167 to 167.5 °C | – | –
13 | CSc1ccc(COc2ccc(N/C=N/O)cc2)cc1 [Comp. 387] | 97.8 | 9.05 | 163 to 164 °C | – | –
14 | COc1ccc(COc2ccc(N/C=N/O)cc2)cc1 [Comp. 389] | 105.5 | 8.80 | 167 to 167.5 °C | – | –
15 | COc1cccc(COc2ccc(N/C=N/O)cc2)c1 [Comp. 390] | 112.8 | 8.57 | 152.5 to 153.5 °C | – | –
16 | Cc1cccc(COc2ccc(N/C=N/O)cc2)c1 [Comp. 391] | 113.4 | 8.62 | 161.5 to 162 °C | – | –
17 | O/N=C/Nc1ccc(OCc2ccc(F)cc2)cc1 [Comp. 392] | 109.6 | 8.62 | 165.5 to 166 °C | – | –
18 | N#Cc1cccc(COc2ccc(N/C=N/O)cc2)c1 [Comp. 393] | 124.3 | 8.96 | 143 to 146 °C | – | –
19 | COc1cccc(COc2ccc(N/C=N/O)cc2)c1OC [Comp. 394] | 119.9 | 8.41 | 144 to 145 °C | – | –
20 | COc1ccc(COc2ccc(N/C=N/O)cc2)c(OC)c1 [Comp. 395] | 111.6 | 8.68 | 178 to 178.5 °C | – | –
21 | CN(C)CCOc1ccc(N/C=N/O)cc1 [Comp. 399] | – | – | 118 to 120 °C | 102.3 | 7.01
22 | CN(C)CCCOc1ccc(N/C=N/O)cc1 [Comp. 400] | – | – | 115 to 117 °C | 116.9 | 7.31
23 | CN(C)CCCCOc1ccc(N/C=N/O)cc1 [Comp. 401] | – | – | 100 to 102 °C | 117.4 | 7.42
24 | CN(C)CCCCCCOc1ccc(N/C=N/O)cc1 [Comp. 402] | – | – | 95 to 96 °C | 118.8 | 7.73
25 | CN(C)CC(C)(C)COc1ccc(N/C=N/O)cc1 [Comp. 403] | – | – | 101.5 to 102 °C | 118.3 | 7.55
26 | CN(C)CCOCCOc1ccc(N/C=N/O)cc1 [Comp. 404] | – | – | 57.5 to 59 °C | 114.9 | 6.94

Row | Structure (SMILES) | Inhibition rate (1 μM) [1, 2] | pIC50 [1, 3] | melting point | Inhibition rate (1 μM) ([1]; 1 μM of the subject compound) | pIC50 [1, 4]
27 | O=C1CCCN1CCOc1ccc(N/C=N/O)cc1 [Comp. 407] | – | – | 127.5 to 129.5 °C | 94.3 | 8.31
28 | O=C1CCCN1CCCOc1ccc(N/C=N/O)cc1 [Comp. 408] | – | – | 177 to 177.5 °C | 103.0 | 8.38
29 | O/N=C/Nc1ccc(OCC2CCO2)cc1 (centres unmarked) [Comp. 409] | – | – | 145 to 146 °C | 113.2 | 8.17
30 | O/N=C/Nc1ccc(OCC2COc3ccccc3O2)cc1 (centres unmarked) [Comp. 410] | – | – | 153 to 155 °C | 117.3 | 9.00
31 | O/N=C/Nc1ccc(OCCn2cccc2)cc1 [Comp. 411] | – | – | 150.5 to 151.5 °C | 122.4 | 8.51
32 | O/N=C/Nc1ccc(OCCCn2cccc2)cc1 [Comp. 412] | – | – | 130 to 130.5 °C | 119.4 | 8.82
33 | CSCCOc1ccc(N/C=N/O)cc1 [Comp. 413] | – | – | 112 to 113 °C | 120.2 | 8.64
34 | CSCCCOc1ccc(N/C=N/O)cc1 [Comp. 414] | – | – | 132 to 133.5 °C | 113.2 | 9.00
35 | CN1CCCC(COc2ccc(N/C=N/O)cc2)C1 (centres unmarked) [Comp. 415] | – | – | 114 to 117 °C | 103.7 | 7.75
36 | CN1CCCC1CCOc1ccc(N/C=N/O)cc1 (centres unmarked) [Comp. 416] | – | – | 99.5 to 102.5 °C | 85.8 | 7.79
37 | CN1CCCCC1COc1ccc(N/C=N/O)cc1 (centres unmarked) [Comp. 417] | – | – | 146.5 to 148 °C | 102.8 | 7.05
38 | O/N=C/Nc1ccc(OCC2CCCO2)cc1 (centres unmarked) [Comp. 420] | – | – | 147 to 148.5 °C | 118.6 | 8.10
39 | O/N=C/Nc1ccc(OCC2CCCCO2)cc1 (centres unmarked) [Comp. 421] | – | – | 153 to 154.5 °C | 113.3 | 8.41
40 | O/N=C/Nc1ccc(OCCc2cccs2)cc1 [Comp. 422] | – | – | 132 to 134 °C | 121.6 | 8.82
41 | O/N=C/Nc1ccc(OCCc2ccsc2)cc1 [Comp. 423] | – | – | 132 to 134.5 °C | 118.4 | 8.66
42 | CCOC(=O)CCCCCOc1ccc(N/C=N/O)cc1 [Comp. 424] | – | – | 102 to 103.5 °C | – | 8.82
43 | O=C([O-])CCCCCOc1ccc(N/C=N/O)cc1.[Na+] [Comp. 425] | – | – | > 300 °C | – | 8.52
44 | CC(=O)OCCCCCOc1ccc(N/C=N/O)cc1 [Comp. 426] | – | – | 101.5 to 104 °C | – | 8.29
45 | O/N=C/Nc1ccc(OCCCN2CCCCC2)cc1 [Comp. 428] | – | – | 143.5 to 144.5 °C | – | 7.29
46 | N#CCCCOc1ccc(N/C=N/O)cc1 [Comp. 430] | – | – | 139.5 to 141 °C | – | 8.13
47 | O/N=C/Nc1ccc(OCCCCCN2CCCCC2)cc1 [Comp. 431] | – | – | 113 to 115 °C | – | 7.32
48 | O/N=C/Nc1ccc(OCCCCCN2CCCC2)cc1 [Comp. 432] | – | – | 116.5 to 117.5 °C | – | 7.71
49 | CCOC(=O)CCCCOc1ccc(N/C=N/O)cc1 [Comp. 433] | – | – | 125 to 127 °C | – | 8.82
50 | O=C([O-])CCCCOc1ccc(N/C=N/O)cc1.[Na+] [Comp. 434] | – | – | > 300 °C | – | 8.49
51 | CC(=O)OCC(COc1ccc(N/C=N/O)cc1)OC(C)=O (centres unmarked) [Comp. 435] | – | – | 133 to 134.5 °C | – | 8.66

— patent US7078400B2, “20-HETE synthase inhibitor” (Taisho Pharmaceutical Co., Ltd., priority 1999, dated 2006)
